Read-outs that look alike come from different tables or passages of the source.
Tests used:
[1] = tested on: male CD-1 mice; experiment: In Vivo Assay: Stress-Induced Entire GI Tract Transit (MEGIT, MEGIT-NES, MEGIT-RS); design: species or system mouse; conditions: for MEGIT-RS entire GI transit 5 hr (% RS): dose 20 p.o., restraint stress; for MEGIT entire GI transit 6 hr % ctrl: acclimated mice
Description: Methods: The animals used in these studies are male CD-1 mice, ave. wt. ˜30 g. Procedure: Mice were housed in LAM under 12 h/12 h light/dark cycle, food & water ad lib. On the day before the experiments, the mice assigned to the “acclimated” (non-stressed) control group were placed into individual wire mesh-bottomed cages, provided food and water ad lib. The acclimated control group was in this new environment for 16-18 hrs prior to beginning the test. On the day of the experiment, mice assigned to experimental groups were housed in home cages were transported to procedure room and remain in their home cages until the start of the transit portion of the study. […] After the carmine marker was administered each mouse was placed in the novel environment cage. One hour after administration of carmine, the fecal pellet output of each animal was recorded. At one-hour intervals thereafter the fecal pellets were examined for the presence of carmine-dye. The number of mice that excreted a carmine-containing fecal pellet at the end of each hour post carmine administration was recorded, until all mice had excreted carmine in a fecal pellet or the end of 6 hrs post carmine administration, whichever occurred first. A variant of this novel environment stress (NES) paradigm is to use the same procedures of dye and compound administrations, but to use restraint (confinement in a small plastic tube for 3 hr) as a stressor (RS=restraint stress), followed by two hours in an individual cage (total of 5 hr fecal transit time). […] The mouse entire GI tract (MEGIT) transit test can thus be done in mice that are all acclimated (non-stressed), in which case the data are expressed as % control (vehicle only), or in mice that are exposed to NES or RS, in which cases the data are expressed as % of the vehicle treated NES or RS group.

[2] = tested on: male CD-1 mice; experiment: In Vivo Assay: Upper GI Tract Transit (MUGIT); conditions: Mus musculus, po, 1 h, p.o., read-out: upper GI transit (% ctrl)
Description: Methods: The animals used in these studies were male CD-1 mice, ave. wt. ˜30 g. Mice were housed under 12 h/12 h light/dark cycle, food & water ad lib. On the day of the experiment mice were assigned to experimental groups, including one vehicle-only group (=control). At 30 min before administration of carmine dye, animals were dosed with vehicle or vehicle-plus-compound, mice were returned to their home cages after drug administration. After administration of carmine, the animals were either returned to their home cages (non-stressed) or individually placed in the same metal cages as used in the fecal output or entire GI tract transit to induce a novel environment stress. One hour after administration of carmine, mice were sacrificed by cervical dislocation, the abdomen opened midventrally, the small intestine from pylorus to cecum was removed, the mesentery divided in order to lay the intestine straight & flat—without stretching. The total length of intestine and the length of carmine-dyed intestine were measured in order to determine the percent of the upper GI tract over which transit had occurred as follows: {(Length of carmine-dyed intestine)/(Total length of intestine)}×100=% upper GI transit. The data expressed were group means±SD (or s.e.m.) and data expressed as % of control.

[3] = tested on: novel environment-stressed mice; experiment: In Vivo Assay-Stress-Induced Fecal Output (Fecal Output for 1 hr); design: species or system mouse; conditions: for response vs control in vivo at 30 mg/kg: Mus musculus, po, 1 h
Outline: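 Adult male Crl:CD-1(ICR) mice (˜30-35 g; at least 10 per dose group) were split into acclimated non-stressed controls, held individually for 16-18 hr in wire-mesh-bottom cages, and non-acclimated stressed groups. Mice were dosed intragastrically with vehicle or test compound in 0.5% methylcellulose, housed individually in novel cages over absorbent cardboard, and fecal pellets per mouse were counted hourly.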

Cc1cc(C(N)=O)cc(C)c1C[C@H](N)C(=O)N(Cc1cccc(C(=O)O)c1)[C@@H](C)c1nc(-c2ccccc2)c[nH]1 [Cpd 227]
MEGIT-RS entire GI transit 5 hr (% RS) [1]: 100 % RS | response vs control in vivo at 30 mg [2]: 93.9%

COc1ccc(CN(C(=O)[C@@H](N)Cc2ccc(C(N)=O)cc2)[C@@H](C)c2nc(-c3ccccc3)c[nH]2)cc1C(=O)O [Cpd 4]
MEGIT-RS entire GI transit 5 hr (% RS) [1]: 100 % RS

COc1ccc(CN(C(=O)[C@@H](N)Cc2ccc(O)cc2)[C@@H](C)c2nc(-c3ccccc3)c[nH]2)cc1C(=O)O [Cpd 261]
MEGIT-RS entire GI transit 5 hr (% RS) [1]: 103.6 % RS | response vs control in vivo at 30 mg [2]: 87.7%

COc1ccc(CN(C(=O)[C@@H](N)Cc2c(C)cc(C(N)=O)cc2C)[C@@H](C)c2nc(-c3ccc(I)cc3)c[nH]2)cc1C(=O)O [Cpd 289]
MEGIT-RS entire GI transit 5 hr (% RS) [1]: 14.1 % RS | response vs control in vivo at 30 mg [2]: 76.4%

COc1ccc(CN(C(=O)[C@@H](N)Cc2c(C)cc(C(N)=O)cc2C)[C@@H](C)c2nc(-c3ccccc3)c[nH]2)cc1C(=O)O [Cpd 18]
Fecal Output (# pellets) cpd ([3]; 30 mg/kg oral, novel environment-stressed mice, 1 hr): 3.1 pellets | response vs control in vivo at 30 mg/kg ([3]; 30 mg/kg oral, relative to acclimated control, 1 hr, read-out: Fecal Output cpd % control): 138% | response vs control in vivo at 30 mg/kg ([3]; 30 mg/kg oral, relative to novel environment stress (NES) vehicle group, 1 hr, read-out: Fecal Output cpd % NES): 82.7% | MEGIT-NES Entire GI transit 6 hr (% NES) ([1]; dose 30 p.o., novel environment stress): 80 % NES | response vs control in vivo at 5 mg ([2]; dose 5 (mg)): 94.2% | response vs control in vivo at 10 mg ([2]; dose 10 (mg)): 99.6% | response vs control in vivo at 25 mg ([2]; dose 25 (mg)): 83% | response vs control in vivo at 30 mg [2]: 37.5% | response vs control in vivo at 50 mg ([2]; dose 50 (mg)): 69.9% | response vs control in vivo at 100 mg [2]: 41.2%

Cc1cc(C(N)=O)cc(C)c1C[C@H](N)C(=O)N(Cc1cccc(-c2nnn[nH]2)c1)[C@@H](C)c1nc(-c2ccccc2)c[nH]1 [Cpd 242]
MEGIT-RS entire GI transit 5 hr (% RS) [1]: 100 % RS

COc1ccc(CN(C(=O)[C@@H](N)Cc2c(C)cc(C(N)=O)cc2C)[C@@H](C)c2nc(-c3ccccc3)c[nH]2)cc1OC [Cpd 75]
Fecal pellet output, Compound (% control) 3.0 ([3]; dose 3.0, oral, NES mice, vs acclimated control): 223.8 % control | Fecal pellet output, Compound (% control) 10.0 ([3]; dose 10.0, oral, NES mice, vs acclimated control): 188.1 % control | Fecal pellet output, Compound (% control) 30.0 ([3]; dose 30.0, oral, NES mice, vs acclimated control): 100 % control | MEGIT entire GI transit 6 hr % ctrl ([1]; dose 30 p.o.): 125 % ctrl | MEGIT entire GI transit 6 hr % ctrl ([1]; dose 60 p.o.): 0 % ctrl | MEGIT entire GI transit 6 hr % ctrl ([1]; dose 100 p.o.): 0 % ctrl | response vs control in vivo at 30 mg [2]: 71.1% | response vs control in vivo at 60 mg ([2]; dose 60 (mg)): 56% | response vs control in vivo at 100 mg [2]: 45.6%

Reference: US10213415B2, “Compounds as opioid receptor modulators” (JANSSEN PHARMACEUTICA NV, priority 2004, dated 2019)
